# ChEMBL document CHEMBL1201862, “PubChem BioAssay data set” (2004)
# Activity calls are given as the source filed them.
# How the values were obtained:
# Cytochrome P450 3A4 = Cytochrome P450 3A4 (Homo sapiens, UniProt P08684);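 also: CYP3A4 tested as one member of a cytochrome P450 panel screen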
# Cytochrome P450 2C9 = Cytochrome P450 2C9 (Homo sapiens, UniProt P11712)
# Streptococcus = assay: GAS UMAA2166 growth inhibition – luminescence, BacTiterGlo, counter-screen for streptokinase expression inhibitor project, dose response (AID 1915); assay type: functional, organism-based;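 also: potency for reduction of bacterial viability or growth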
# [1] = tested on: Streptococcus sp. 'group A'; assay: Streptococcus pyogenes SK(-)GAS viability under kanamycin – luminescence, BacTiterGlo, confirmation, counter-screen for streptokinase expression inhibitor project, dose response (AID 1900); assay type: functional, organism-based
# Cytochrome P450 2C19 = Cytochrome P450 2C19 (Homo sapiens, UniProt P33261); assay: Cytochrome panel assay with activity outcomes. Panel member name: p450-cyp2c19 Compounds with AC50 equal or less than 10 uM are considered active; assay type: functional
# [2] = viability of uninfected HEp-2 cells – cell-based, HTS, cytotoxicity control for RSV inhibitor project, dose response (AID 2410); assay type: functional; details: human respiratory syncytial virus
# [3] = Luminescence Cell-Based Dose Retest to Confirm Inhibitors of Cancer Stem Cells. [Related pubchem assays (depositor defined):AID2717, AID2721]; assay type: functional; details: Homo sapiens
# [4] = NIH3T3 cell viability loss – ATP luminescence, mouse fibroblasts, counter-screen, dose response (AID 2010); assay type: functional, cell-based;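 also: cells exposed to compound for about 90 hours before reading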
# [5] = Trypanosoma cruzi growth suppression in host cells – NIH3T3 host cells, beta-gal luminescence, confirmation (AID 2044); assay type: functional, cell-based;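 also: intracellular parasites grown in NIH/3T3 mouse fibroblasts as host cells; luminescent beta-galactosidase reporter signal from transgenic T. cruzi replicating inside host cells; inhibitors lower the luminescence signal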
# [6] = reduction of Shn3 3'UTR-driven luciferase in osteoblasts – cell-based, Clone20 osteoblasts, firefly luciferase, cherry-picked, dose response (AID 624132); assay type: functional;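 also: firefly luciferase luminescence from reporter carrying the Shn3 3'UTR in osteoblasts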
# Cytochrome P450 2D6 = Cytochrome P450 2D6 (Homo sapiens, UniProt P10635);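 also: CYP2D6 member of a cytochrome P450 panel assay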
# Chain of Cytochrome P450 2D6 (P10635 whole entry): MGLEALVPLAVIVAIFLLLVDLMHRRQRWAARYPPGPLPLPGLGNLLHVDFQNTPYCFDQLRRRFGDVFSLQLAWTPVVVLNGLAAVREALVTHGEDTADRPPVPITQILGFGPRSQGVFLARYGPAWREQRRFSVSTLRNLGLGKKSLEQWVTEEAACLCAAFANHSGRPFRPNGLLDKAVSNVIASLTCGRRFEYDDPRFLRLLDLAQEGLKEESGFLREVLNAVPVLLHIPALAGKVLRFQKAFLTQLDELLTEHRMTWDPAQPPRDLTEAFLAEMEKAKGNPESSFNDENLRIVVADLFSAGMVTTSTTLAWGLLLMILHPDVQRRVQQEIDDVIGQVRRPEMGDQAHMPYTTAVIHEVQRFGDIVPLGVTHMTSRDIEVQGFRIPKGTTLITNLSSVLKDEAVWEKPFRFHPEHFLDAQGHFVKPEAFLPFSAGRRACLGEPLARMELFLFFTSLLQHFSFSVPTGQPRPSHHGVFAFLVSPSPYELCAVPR
# Chain of Cytochrome P450 2C19 (P33261 whole entry): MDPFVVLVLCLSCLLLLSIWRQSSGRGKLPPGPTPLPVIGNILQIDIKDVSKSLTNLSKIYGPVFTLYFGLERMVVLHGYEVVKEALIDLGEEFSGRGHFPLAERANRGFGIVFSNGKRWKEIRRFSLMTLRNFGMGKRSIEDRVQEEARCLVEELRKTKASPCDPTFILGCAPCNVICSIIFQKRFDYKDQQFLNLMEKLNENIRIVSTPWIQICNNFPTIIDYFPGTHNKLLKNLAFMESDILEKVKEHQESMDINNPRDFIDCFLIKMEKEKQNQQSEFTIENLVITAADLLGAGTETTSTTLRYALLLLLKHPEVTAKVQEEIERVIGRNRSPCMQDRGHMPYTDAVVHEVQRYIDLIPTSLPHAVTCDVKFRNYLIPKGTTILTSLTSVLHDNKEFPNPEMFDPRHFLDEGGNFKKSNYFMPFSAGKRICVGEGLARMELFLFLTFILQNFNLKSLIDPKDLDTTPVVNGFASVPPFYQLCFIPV
# Chain of Cytochrome P450 2C9 (P11712 whole entry): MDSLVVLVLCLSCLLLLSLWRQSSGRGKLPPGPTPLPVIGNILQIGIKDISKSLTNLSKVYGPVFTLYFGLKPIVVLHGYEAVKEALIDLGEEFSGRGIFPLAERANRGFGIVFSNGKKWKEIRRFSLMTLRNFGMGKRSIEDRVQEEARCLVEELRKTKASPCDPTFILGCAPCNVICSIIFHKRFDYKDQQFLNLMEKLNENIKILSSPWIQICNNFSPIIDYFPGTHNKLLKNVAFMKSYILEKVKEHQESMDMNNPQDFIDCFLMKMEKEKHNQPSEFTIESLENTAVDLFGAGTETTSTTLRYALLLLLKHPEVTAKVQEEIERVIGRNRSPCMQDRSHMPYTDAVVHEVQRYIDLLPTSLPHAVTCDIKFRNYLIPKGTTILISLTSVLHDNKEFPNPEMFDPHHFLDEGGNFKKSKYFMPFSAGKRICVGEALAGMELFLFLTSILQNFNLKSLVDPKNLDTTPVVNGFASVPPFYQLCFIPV
# Chain of Cytochrome P450 3A4 (P08684 whole entry): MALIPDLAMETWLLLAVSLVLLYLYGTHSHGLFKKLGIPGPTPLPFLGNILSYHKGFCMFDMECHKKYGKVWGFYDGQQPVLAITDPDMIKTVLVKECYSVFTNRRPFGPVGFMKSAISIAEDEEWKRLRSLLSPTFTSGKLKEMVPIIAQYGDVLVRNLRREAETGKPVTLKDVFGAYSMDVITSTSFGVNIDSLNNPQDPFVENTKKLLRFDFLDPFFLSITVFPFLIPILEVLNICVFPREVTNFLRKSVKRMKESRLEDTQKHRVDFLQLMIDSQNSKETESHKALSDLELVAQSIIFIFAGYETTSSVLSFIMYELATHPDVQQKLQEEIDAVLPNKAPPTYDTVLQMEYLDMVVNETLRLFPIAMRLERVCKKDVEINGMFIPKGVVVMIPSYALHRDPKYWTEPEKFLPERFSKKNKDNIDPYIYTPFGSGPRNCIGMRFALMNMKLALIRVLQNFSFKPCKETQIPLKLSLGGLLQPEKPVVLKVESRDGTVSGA
structure (smiles),measurement,setting,value
CC(C)COP(=O)(c1ccc(N(C)C)cc1)C(O)c1ccccc1F (configuration not stated),AC50,Cytochrome P450 3A4,3.98 µM (inconclusive)
same,AC50,Cytochrome P450 2C9,12.6 µM (inconclusive)
Cc1nn2c(COc3ccc(NC(=O)c4ccccc4)cc3)nnc2c2ccccc12,EC50,Streptococcus,0.859 µM (active)
same,EC50,[1],0.854 µM (active)
CCOC(=O)[C@@H](O)Cc1cnc2ccccc2n1,AC50,Cytochrome P450 2C9,3.98 µM (inconclusive)
CCOC(=O)c1nnn(-c2nonc2N)c1-c1ccccc1,AC50,Cytochrome P450 2C9,10 µM (inconclusive)
N#C/C(=C\c1ccc(Oc2ccc(C(F)(F)F)cc2[N+](=O)[O-])cc1)c1nc2ccccc2[nH]1,AC50,Cytochrome P450 3A4,11.2 µM (inconclusive)
O=C(O)C(Cc1cccs1)C(=O)O,AC50,Cytochrome P450 2C19,inconclusive
FC(F)(F)c1cnc(N2CCC(=NOCc3ccc(Cl)cc3)CC2)c(Cl)c1,AC50,Cytochrome P450 2C19; read-out: AC50,20 µM (inconclusive)
COc1ccc(N2CCN(C(=O)CSc3nnc4c(C)cc5cc(C)ccc5n34)CC2)cc1,CC50,[2],> 50 µM (active)
CC(C)=CCc1c(O)ccc(C(=O)Cc2ccccc2)c1O,AC50,[3],3.82 µM (active)
Clc1ccc(OCCOCCN2CCCCC2)c(Br)c1,EC50,[4],13.2 µM (active)
same,EC50,[5],0.166 µM (active)
CCCn1cnc2c(SCC(=O)O)nc(N)nc21,AC50,Cytochrome P450 2C19,inconclusive
COC(=O)[C@@]1(Cc2ccc(OC)cc2)[C@H]2c3cc(C(=O)N4CCCC4)n(Cc4ccc(OC(F)(F)F)cc4)c3C[C@H]2CN1C(=O)c1ccccc1,AC50,Cytochrome P450 2C19; read-out: AC50,7.94 µM (inconclusive)
CC1CC(C)CN(C(=O)c2cc3cc(Br)cc(Br)c3o2)C1 (configuration not stated),CC50,[2],18.9 µM (active)
CC(C)=CCC/C(C)=C/CO/N=C1/[C@H]2O[C@@H]2[C@@H](O)[C@H]2[C@H]1CCn1c(=O)n(Cc3cc4c(cc3Cl)OCO4)c(=O)n12,AC50,Cytochrome P450 3A4,3.98 µM (inconclusive)
CC1CCCC(NC(=O)C2CCCN2S(=O)(=O)c2cccc3nsnc23)C1C (configuration not stated),CC50,[2],23.6 µM (active)
Cc1sc2nc(SCC(=O)C(C)(C)C)n(Cc3ccco3)c(=O)c2c1C,AC50,Cytochrome P450 2C19; read-out: AC50,5.01 µM (inconclusive)
CCOC(=O)CSc1cc(C(F)(F)F)nc(-c2ccccn2)n1,AC50,Cytochrome P450 2C19; read-out: AC50,17.8 µM (inconclusive)
same,AC50,Cytochrome P450 2C9,39.8 µM (inconclusive)
O=C(O)c1cc2c(ccc3ccccc32)[nH]1,CC50,[2],30.9 µM (active)
CCOc1ccccc1NC(=O)Nc1ccc(CC#N)cc1,CC50,[2],28 µM (active)
CCN1CCN(c2ccc(S(=O)(=O)N3CCOCC3)cc2NC(=O)CCC(C)C)CC1,EC50,[4],> 60 µM (not active)
same,EC50,[5],1.34 µM (active)
CCOc1cc(NC(=O)c2cccc(C)c2)c(OCC)cc1N=C(S)NCC1CCCO1 (configuration not stated),AC50,Cytochrome P450 2C9,7.94 µM (inconclusive)
C=C(Br)CN(C)CC(=C)Br,AC50,Cytochrome P450 2C19,inconclusive
CCCCNc1c(-c2ccc(SC(C)CC)cc2)nc2ccccn12 (configuration not stated),AC50,[3],4.29 µM (active)
COCCn1c(=O)c(CCc2ccccc2)nc2cnc(OC)nc21,AC50,Cytochrome P450 2C9,20 µM (inconclusive)
Cc1cccc2cc(CN(Cc3nnnn3Cc3ccco3)C3CCCC3)c3nnnn3c12,CC50,[2],> 50 µM (active)
O=S(=O)(c1ccc(Cl)cc1)N1CCN(C2CCN(Cc3ccccc3)CC2)CC1,EC50,[4],> 60 µM (not active)
same,EC50,[5],1.07 µM (active)
Cc1cccc(-c2nc(Nc3cccc(O)c3)c3ccccc3n2)c1,AC50,[3],3.88 µM (active)
Oc1nc2ccc(Br)cc2c(-c2ccccc2)c1CN1CCOCC1,CC50,[2],48.4 µM (active)
ON(CCc1ccccn1)Cc1ccccc1,AC50,Cytochrome P450 3A4,3.98 µM (inconclusive)
CN(CCc1ccccn1)Cc1ccc(Cl)cc1Cl,AC50,Cytochrome P450 2C9,6.31 µM (inconclusive)
Cc1ccc(C2CC(c3cccs3)=NN2C(=O)CSc2nc3ccccc3o2)cc1 (configuration not stated),CC50,[2],30.2 µM (active)
CC(Oc1ccc(-c2ccccc2)c(F)c1)c1ccn(S(=O)(=O)c2ccc(Cl)cc2)n1 (configuration not stated),AC50,Cytochrome P450 3A4,15.8 µM (inconclusive)
COc1ccc2c(=O)cc(-c3ccncc3)oc2c1OC,AC50,Cytochrome P450 3A4,3.98 µM (inconclusive)
Cc1cc(C(=O)N2CCc3c([nH]c4ccccc34)C2c2cccc(Cl)c2)nn1C (configuration not stated),EC50,[4],> 60 µM (not active)
same,EC50,[5],2.17 µM (active)
C=CCOc1cccc(CNn2cnnc2S)c1,AC50,Cytochrome P450 3A4,28.2 µM (inconclusive)
same,AC50,Cytochrome P450 2C9,6.31 µM (inconclusive)
CCOC(=O)c1c(NC(=O)c2nn(CC)cc2Br)sc(C)c1C,AC50,[6],11 µM (active)
O=C(Nc1ccccc1N1CCOCC1)c1cc2c(s1)CCCCC2,CC50,[2],> 50 µM (active)
Cc1cc(C(=O)COc2ccc(Cl)cc2Br)c(C)n1C,CC50,[2],> 50 µM (active)
CCOC(=O)c1sc(NC(=O)Nc2ccccc2Cl)cc1C,AC50,[3],5.37 µM (active)
same,EC50,[4],> 30 µM (not active)
same,EC50,[5],2.26 µM (active)
COc1ccc(C)cc1Nc1n[n+](-c2ccccc2)c(-c2cccc(Cl)c2Cl)s1,EC50,[4],15.4 µM (active)
same,EC50,[5],3 µM (active)
O=C(NCc1ccc(Cl)cc1)c1cccc(NC(=O)c2ccccc2)c1,AC50,[3],5.29 µM (active)
Cc1ccc(C(=O)N2C3C=CC(C3)C2(C(F)(F)F)C(F)(F)F)cc1 (configuration not stated),AC50,Cytochrome P450 2C9,39.8 µM (inconclusive)
COc1cccc(-c2nc(CS(=O)(=O)CC(=O)NCCCOC(C)C)c(C)o2)c1,AC50,Cytochrome P450 2C19; read-out: AC50,17.8 µM (inconclusive)
same,AC50,Cytochrome P450 2C9,11.2 µM (inconclusive)
Cc1ccc(S(=O)(=O)NCC(=O)N(CC(=O)NCc2ccco2)Cc2cccs2)cc1,AC50,Cytochrome P450 2C9,15.8 µM (inconclusive)
CCOc1ccc(N/C(C)=C/C(=O)c2ccc(C)o2)cc1,EC50,[4],> 60 µM (not active)
same,EC50,[5],2.98 µM (active)
COCC(C)NCc1cccc(C)c1 (configuration not stated),AC50,Cytochrome P450 2D6,14.1 µM (inconclusive)
OCCC1CN(Cc2cccc(C(F)(F)F)c2)CCN1Cc1ccccc1 (configuration not stated),EC50,[4],> 60 µM (inconclusive)
same,EC50,[5],1.33 µM (active)
Cc1ccc(N(C(C)C(=O)Nc2cc(Cl)ccc2Oc2ccccc2)S(C)(=O)=O)cc1 (configuration not stated),AC50,Cytochrome P450 2D6,15.8 µM (inconclusive)
CCN1CCN(CC(=O)Nc2ccc(S(=O)(=O)N3C(C)CCCC3C)cc2)CC1 (configuration not stated),EC50,[4],> 60 µM (not active)
same,EC50,[5],1.07 µM (active)
COC(=O)c1cc(NC(=O)c2cc(-c3ccc(Cl)cc3)oc2C(F)(F)F)ccc1N1CCOCC1,EC50,[4],> 60 µM (not active)
same,EC50,[5],3.3 µM (active)
C[C@@H]1O[C@H](O[C@@H]2CC[C@@]3(C=O)[C@H]4CC[C@@]5(C)[C@@H](C6=CC(=O)OC6)CC[C@@]5(O)[C@@H]4CC[C@]3(O)C2)C[C@H](O)[C@@H]1O,AC50,Cytochrome P450 3A4,15.8 µM (inconclusive)
Oc1ccc2c3c1O[C@H]1c4oc5ccccc5c4C[C@]4(O)[C@H](C2)N(CC2CC2)CC[C@@]314,AC50,Cytochrome P450 3A4,20 µM (inconclusive)
CC(=O)N1CCC2(CC1)CN(c1ccccc1)C2,AC50,Cytochrome P450 2C19,inconclusive
CCCCCOc1ccc(C(=O)NCC2(c3ccccc3)CCOCC2)cc1,AC50,Cytochrome P450 3A4,31.6 µM (inconclusive)
COc1ccc(-c2nc(-c3cc([N+](=O)[O-])ccc3C)c(-c3ccccc3)[nH]2)cc1OC,CC50,[2],21.4 µM (active)
Cc1ccc(-n2nc3c(N4CCC(C(=O)NCc5cccc(F)c5)CC4)nnc(C)c3c2C)cc1,CC50,[2],32.7 µM (active)
C=CCn1c(SCC(=O)NC2CCCCC2)nnc1C1CCCCC1,AC50,Cytochrome P450 2C19,inconclusive
same,AC50,Cytochrome P450 2C9,28.2 µM (inconclusive)
COc1ccc2cc(S(=O)(=O)n3cnc(C)c3)ccc2c1,CC50,[2],> 50 µM (active)
COc1c(N2CCN(C(=S)Nc3ccc(F)cc3)C(C)C2)c(F)cc2c(=O)c(C(=O)O)cn(C3CC3)c12 (configuration not stated),AC50,Cytochrome P450 2C19; read-out: AC50,39.8 µM (inconclusive)
COc1c(N2CCN(C(S)=Nc3ccc(F)cc3)C(C)C2)c(F)cc2c(=O)c(C(=O)O)cn(C3CC3)c12 (configuration not stated),EC50,Streptococcus,5.79 µM (active)
same,EC50,[1],4.5 µM (active)
CCOc1ccccc1NC(=O)CSc1nc2c(c(=O)n1C)SC(C)C2 (configuration not stated),CC50,[2],35.2 µM (active)
O=C(Cn1ccnc1)c1ccc(Cl)cc1,EC50,[4],> 30 µM (not active)
same,EC50,[5],> 30 µM (not active)
Cc1c(C2(O)CCCCC2)[nH]c2cc(C(F)(F)F)ccc12,AC50,[3],7.81 µM (active)
CCNC(=Nc1ccc(Cl)cc1)c1cccnc1,AC50,Cytochrome P450 3A4,22.4 µM (inconclusive)
same,AC50,Cytochrome P450 2C19; read-out: AC50,1.78 µM (inconclusive)
N=C(N)N/N=C/c1ccc(Cl)c([N+](=O)[O-])c1,EC50,[4],> 60 µM (not active)
same,EC50,[5],0.108 µM (active)
CCCCCCCCCCCCCC(=O)O[C@H]1[C@@H](C)[C@@]2(O)[C@@H](C=C(CO)C[C@]3(O)C(=O)C(C)=C[C@@H]23)C2C(C)(C)[C@]21OC(C)=O (some centres not stated),AC50,Cytochrome P450 2C9,10 µM (inconclusive)
C/C(=N\c1ccccc1C)C1=C(O)SCC1=O,CC50,[2],32.3 µM (active)
COc1cccc(/N=C/c2c[nH]nc2O)c1,AC50,Cytochrome P450 2C19; read-out: AC50,35.5 µM (inconclusive)
same,AC50,Cytochrome P450 2C9,20 µM (inconclusive)
Oc1ccccc1/N=C/c1c[nH]nc1O,AC50,Cytochrome P450 2C19,inconclusive
same,AC50,Cytochrome P450 2C9,8.91 µM (inconclusive)
O/N=C/c1cc(Cl)ccc1OCc1ccccc1Cl,AC50,[3],4.45 µM (active)
C[C@]12CCC3C(CC[C@H]4CC(O)CC[C@]34C)C1CC/C2=N/O (some centres not stated),CC50,[2],> 50 µM (active)
c1ccc(Nc2nc(-c3ccncc3)cs2)nc1,EC50,[4],> 60 µM (not active)
same,EC50,[5],0.526 µM (active)
CC(C)=CCc1c(O)c(CC=C(C)C)c2occ(-c3ccc(O)cc3)c(=O)c2c1O,AC50,[3],2.62 µM (active)
same,EC50,Streptococcus,3.28 µM (active)
same,EC50,[1],2.66 µM (active)
Cc1nc(N2CCC(C)CC2)c2c(C)c(C(=O)Nc3ccc(C(F)(F)F)cc3)sc2n1,EC50,[4],> 60 µM (inconclusive)
same,EC50,[5],1.41 µM (active)
N#Cc1ccc(C(c2ccc(C#N)cc2)n2cncn2)cc1 [LETROZOLE],AC50,Cytochrome P450 2C19; read-out: AC50,7.94 µM (inconclusive)
